In the supplement of paper PMC10307832:

Columns and labels:
Assay in all cases: relative viability (nuclei count vs DMSO), 5 days (fraction); higher = more cells survive
[1] = test system: NCI-H1666
Procedure, shortened: (§1)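 The day after seeding in 1536-well plates, lung cancer cell lines were treated by pin tool with a single drug, or with a fixed anchor-drug dose together with five library-drug doses (not always all listed) in √10 steps. After 5 days, a combined fix-and-stain solution (final 0.05% Triton X-100, 1% formaldehyde, 1 ug/ml Hoechst) was added. Nuclei counted on 4× images gave relative viability as treated counts over vehicle counts, reported as the median of duplicate plates.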

[2] = test system: HCC-827
Procedure, shortened: as §1

[3] = test system: EPLC-272H
Procedure, shortened: as §1

[4] = test system: LU99A
Procedure, shortened: as §1

[5] = test system: HOP-62
Procedure, shortened: as §1

[6] = test system: 201T
Procedure, shortened: as §1

[7] = test system: LCLC-97TM1
Procedure, shortened: as §1

[8] = test system: H3255
Procedure, shortened: as §1

[9] = test system: NCI-H2085
Procedure, shortened: as §1

[10] = test system: EKVX
Procedure, shortened: as §1

[11] = test system: PC-3 [JPC-3]
Procedure, shortened: as §1

[12] = test system: NCI-H647
Procedure, shortened: as §1

[13] = test system: NCI-H358
Procedure, shortened: as §1

[14] = test system: NCI-H1975
Procedure, shortened: as §1

[15] = test system: SW 1573
Procedure, shortened: as §1

[16] = test system: NCI-H2087
Procedure, shortened: as §1

[17] = test system: HCC-44
Procedure, shortened: as §1

[18] = test system: BEN
Procedure, shortened: as §1

[19] = test system: COR-L 105
Procedure, shortened: as §1

[20] = test system: NCI-H1437
Procedure, shortened: as §1

[21] = test system: LOU-NH91
Procedure, shortened: as §1

O=C(O)c1ccc(-c2c[nH]c3ncc(-c4ccccc4)cc23)cc1C1CCCC1 + C[C@@H](Oc1cc(-c2cnn(C3CCNCC3)c2)cnc1N)c1c(Cl)ccc(F)c1Cl [Crizotinib] (partner 1 µM)
relative viability ([1]; first compound 0.04 µM): 1.03 | relative viability ([1]; first compound 0.1265 µM): 0.991 | relative viability ([1]; first compound 0.4 µM): 0.812 | relative viability ([1]; first compound 1.265 µM): 0.365 | relative viability ([2]; first compound 0.04 µM): 0.88 | relative viability ([2]; first compound 0.1265 µM): 0.95 | relative viability ([2]; first compound 0.4 µM): 0.897 | relative viability ([2]; first compound 1.265 µM): 0.724 | relative viability ([3]; first compound 0.04 µM): 0.974 | relative viability ([3]; first compound 0.1265 µM): 1.01 | relative viability ([3]; first compound 0.4 µM): 0.989 | relative viability ([3]; first compound 1.265 µM): 0.655 | relative viability ([4]; first compound 0.04 µM): 0.539 | relative viability ([4]; first compound 0.1265 µM): 0.678 | relative viability ([4]; first compound 0.4 µM): 0.503 | relative viability ([4]; first compound 1.265 µM): 0.486 | relative viability ([5]; first compound 0.04 µM): 0.902 | relative viability ([5]; first compound 0.1265 µM): 0.901 | relative viability ([5]; first compound 0.4 µM): 0.904 | relative viability ([5]; first compound 1.265 µM): 0.497 | relative viability ([6]; first compound 0.04 µM): 1.06 | relative viability ([6]; first compound 0.1265 µM): 1.04 | relative viability ([6]; first compound 0.4 µM): 0.941 | relative viability ([6]; first compound 1.265 µM): 0.979 | relative viability ([7]; first compound 0.04 µM): 0.376 | relative viability ([7]; first compound 0.1265 µM): 0.329 | relative viability ([7]; first compound 0.4 µM): 0.234 | relative viability ([7]; first compound 1.265 µM): 0.326 | relative viability ([8]; first compound 0.04 µM): 0.953 | relative viability ([8]; first compound 0.1265 µM): 0.851 | relative viability ([8]; first compound 0.4 µM): 0.825 | relative viability ([8]; first compound 1.265 µM): 0.9 | relative viability ([9]; first compound 0.04 µM): 0.832 | relative viability ([9]; first compound 0.1265 µM): 0.804 | relative viability ([9]; first compound 0.4 µM): 0.878 | relative viability ([9]; first compound 1.265 µM): 0.696 | relative viability ([10]; first compound 0.04 µM): 1.13 | relative viability ([10]; first compound 0.1265 µM): 0.891 | relative viability ([10]; first compound 0.4 µM): 0.927 | relative viability ([10]; first compound 1.265 µM): 0.676 | relative viability ([11]; first compound 0.04 µM): 0.963 | relative viability ([11]; first compound 0.1265 µM): 1.03 | relative viability ([11]; first compound 0.4 µM): 0.968 | relative viability ([11]; first compound 1.265 µM): 0.832 | relative viability ([12]; first compound 0.04 µM): 1.01 | relative viability ([12]; first compound 0.1265 µM): 1.08 | relative viability ([12]; first compound 0.4 µM): 0.987 | relative viability ([12]; first compound 1.265 µM): 0.77 | relative viability ([13]; first compound 0.04 µM): 0.633 | relative viability ([13]; first compound 0.1265 µM): 0.579 | relative viability ([13]; first compound 0.4 µM): 0.512 | relative viability ([13]; first compound 1.265 µM): 0.352 | relative viability ([14]; first compound 0.04 µM): 0.999 | relative viability ([14]; first compound 0.1265 µM): 1.04 | relative viability ([14]; first compound 0.4 µM): 0.923 | relative viability ([14]; first compound 1.265 µM): 0.767 | relative viability ([15]; first compound 0.04 µM): 0.769 | relative viability ([15]; first compound 0.1265 µM): 0.892 | relative viability ([15]; first compound 0.4 µM): 0.862 | relative viability ([15]; first compound 1.265 µM): 0.925 | relative viability ([16]; first compound 0.04 µM): 0.853 | relative viability ([16]; first compound 0.1265 µM): 0.75 | relative viability ([16]; first compound 0.4 µM): 0.833 | relative viability ([16]; first compound 1.265 µM): 0.723 | relative viability ([17]; first compound 0.04 µM): 0.764 | relative viability ([17]; first compound 0.1265 µM): 0.823 | relative viability ([17]; first compound 0.4 µM): 0.812 | relative viability ([17]; first compound 1.265 µM): 0.577 | relative viability ([18]; first compound 0.04 µM): 0.89 | relative viability ([18]; first compound 0.1265 µM): 0.996 | relative viability ([18]; first compound 0.4 µM): 0.885 | relative viability ([18]; first compound 1.265 µM): 0.774 | relative viability ([19]; first compound 0.04 µM): 0.857 | relative viability ([19]; first compound 0.1265 µM): 0.789 | relative viability ([19]; first compound 0.4 µM): 0.723 | relative viability ([19]; first compound 1.265 µM): 0.792 | relative viability ([20]; first compound 0.04 µM): 1.03 | relative viability ([20]; first compound 0.1265 µM): 0.959 | relative viability ([20]; first compound 0.4 µM): 0.874 | relative viability ([20]; first compound 1.265 µM): 0.839 | relative viability ([21]; first compound 0.04 µM): 0.725 | relative viability ([21]; first compound 0.1265 µM): 0.771 | relative viability ([21]; first compound 0.4 µM): 0.702 | relative viability ([21]; first compound 1.265 µM): 0.782
